Assay results taken from patent US20100256146A1, “TRISUBSTITUTED PIPERIDINES” (Novartis AG, priority 2007, published 2010).

These molecules were tested against T1, renin (Homo sapiens, UniProt P00797) (assay: in vitro test of Nussberger et al.: formation of angiotensin I in human plasma, determined by radioimmunoassay). Conditions: concentration of inhibitor which reduces the formation of angiotensin I in human plasma by 50%.
T1 construct: This test measures the formation of angiotensin I in human plasma; from tissue; host or cells: human plasma
T1 sequence (P00797 67-406): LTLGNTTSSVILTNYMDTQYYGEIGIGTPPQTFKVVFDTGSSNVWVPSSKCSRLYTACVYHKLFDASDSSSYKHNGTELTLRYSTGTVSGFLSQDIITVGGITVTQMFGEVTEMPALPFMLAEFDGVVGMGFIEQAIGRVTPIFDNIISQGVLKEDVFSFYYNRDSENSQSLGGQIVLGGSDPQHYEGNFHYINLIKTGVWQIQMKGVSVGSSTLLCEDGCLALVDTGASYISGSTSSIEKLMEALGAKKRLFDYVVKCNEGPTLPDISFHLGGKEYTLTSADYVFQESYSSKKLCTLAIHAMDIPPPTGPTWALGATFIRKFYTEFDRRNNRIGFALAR
Assay type: biochemical
Procedure: The effect of renin inhibitors is detected inter alia experimentally by means of in vitro tests where the reduction in the formation of angiotensin I is measured in various systems (human plasma, purified human renin together with synthetic or natural renin substrate). The following in vitro test of Nussberger et al. (1987) J. Cardiovascular Pharmacol., Vol. 9, pp. 39-44, is used inter alia. This test measures the formation of angiotensin I in human plasma. The amount of angiotensin I formed is determined in a subsequent radioimmunoassay. The effect of inhibitors on the formation of angiotensin I is tested in this system by adding various concentrations of these substances. The IC50 is defined as the concentration of the particular inhibitor which reduces the formation of angiotensin I by 50%. The compounds of the present invention show inhibitory effects in the in vitro systems at minimal concentrations of about 10^−6 to about 10^−10 mol/l.

SMILES | IC50 [nM]
COCCCN1CCOc2ccc(CO[C@H]3CNCC[C@]3(OCCOC)c3ccc(COCCOC)cc3)cc21 [Example 1, 6-{(3S,4S)-4-(2-Methoxy-ethoxy)-4-[4-(2-methoxy-ethoxymethyl)-phenyl]-piperidine-3-yloxymethyl}-4-(3-methoxy-propyl)-3,4-dihydro-2H-benzo[1,4]oxazine] | 26.5
COCCCO[C@]1(c2ccc(COC[C@@H](C)COC)cc2)CCNC[C@@H]1OCc1ccc2c(c1)N(CCCOC)CCO2 [Example 10, 6-[(3S,4S)-4-[4-((S)-3-Methoxy-2-methyl-propoxymethyl)-phenyl]-4-(3-methoxy-propoxy)-piperidin-3-yloxymethyl]-4-(3-methoxy-propyl)-3,4-dihydro-2H-benzo[1,4]oxazine] | 3
COCCCN1CCOc2ccc(CO[C@H]3CNCC[C@]3(OCC#N)c3ccc(COC[C@@H](C)COC)cc3)cc21 [Example 12, {(3S,4S)-4-[4-((S)-3-Methoxy-2-methyl-propoxymethyl)-phenyl]-3-[4-(3-methoxy-propyl)-3,4-dihydro-2H-benzo[1,4]oxazin-6-ylmethoxy]-piperidin-4-yloxy}-acetonitrile] | 7.5

Now from value to molecule:

IC50 [nM] | SMILES
10.4 | COCCCN1CCOc2ccc(CO[C@H]3CNCC[C@]3(OC[C@H](O)COC)c3ccc(COCCOC)cc3)cc21 [Example 2, (R)-1-Methoxy-3-{(3S,4S)-4-[4-(2-methoxy-ethoxymethyl)-phenyl]-3-[4-(3-methoxy-propyl)-3,4-dihydro-2H-benzo[1,4]oxazin-6-ylmethoxy]-piperidin-4-yloxy}-propan-2-ol]
9.5 | COCCCN1CCOc2ccc(CO[C@H]3CNCC[C@]3(OC[C@@H](O)COC)c3ccc(COCCOC)cc3)cc21 [Example 3, (S)-1-Methoxy-3-{(3S,4S)-4-[4-(2-methoxy-ethoxymethyl)-phenyl]-3-[4-(3-methoxy-propyl)-3,4-dihydro-2H-benzo[1,4]oxazin-6-ylmethoxy]-piperidin-4-yloxy}-propan-2-ol]
92.5 | COCCCN1CCOc2ccc(CO[C@H]3CNCC[C@]3(OCC3CCCC3)c3ccc(COCCOC)cc3)cc21 [Example 5, 6-{(3S,4S)-4-Cyclopentylmethoxy-4-[4-(2-methoxy-ethoxymethyl)-phenyl]-piperidin-3-yloxymethyl}-4-(3-methoxy-propyl)-3,4-dihydro-2H-benzo[1,4]oxazine]
